Among the data in ChEMBL document CHEMBL3217459, “3-Diarylethyne quinazolinones: a new class of senescence inducers” (Medchemcomm, 2013) are Activity and OD values, retold here.

What all share (assay type): functional
Assay [1] deals with MCF7. Put plainly: Cell cycle arrest in human MCF7 cells assessed as accumulation at G1 phase at 4 uM after 24 hrs using propidium iodide staining by FACS analysis (reference value: 70%).
Assay [2] deals with MCF7. Put plainly: Cell cycle arrest in human MCF7 cells assessed as accumulation at G2/M phase at 4 uM after 24 hrs using propidium iodide staining by FACS analysis (reference value: 19%).
Assay [3] concerns MCF7. Put plainly: Cytotoxicity against human MCF7 cells assessed as cell viability at 2 uM after 48 hrs by MTT assay.
The test system of assay [4] is MCF7. Briefly: Cytotoxicity against human MCF7 cells assessed as cell viability at 4 uM after 48 hrs by MTT assay.
The test system of assay [5] is MCF7. Put plainly: Cell cycle arrest in human MCF7 cells assessed as accumulation at S phase at 4 uM after 24 hrs using propidium iodide staining by FACS analysis (reference value: 11%).

Consider `Cc1cc(C#Cc2ccccc2)ccc1-n1c(/C=C/c2ccc(O)cc2)nc2ccccc2c1=O`, for which the results for the Activity in assay [1], in assay [2] and in assay [5] were 75%, 18% and 7%, respectively. In addition, the OD in assay [3] is recorded as 0.87; in assay [4] it was 0.58.

In the case of `COc1ccc(/C=C/c2nc3ccccc3c(=O)n2-c2ccc(C#Cc3ccccc3)cc2C)cc1`, the Activity was determined as 78% in assay [1], 15% in assay [2] and 7% in assay [5]. Further, the OD in assay [3] was determined as 0.84; in assay [4] it was 0.73.

In the case of `COc1cc(/C=C/c2nc3ccccc3c(=O)n2-c2ccc(C#Cc3ccccc3)cc2C)cc(OC)c1`, the values for the Activity in assay [1], in assay [2] and in assay [5] were 73%, 19% and 8%, respectively. In addition, the OD came out at 0.93 in assay [3] and 0.61 in assay [4].

On to `Cc1cc(C#Cc2ccc(C(C)(C)C)cc2)ccc1-n1c(/C=C/c2ccc3c(c2)OCO3)nc2ccccc2c1=O`, for which the Activity in assay [1] is 67%; in assay [2], 23%; in assay [5], 10%. Moreover, the figures for the OD in assay [3] and in assay [4] were 0.67 and 0.52, respectively.

As for `COc1cc(/C=C/c2nc3ccccc3c(=O)n2-c2ccc(C#Cc3ccc(C(C)(C)C)cc3)cc2C)cc(OC)c1OC`, the Activity in assay [1] was determined as 14%; in assay [2], 78%; in assay [5] it was 8%. Besides, the OD was found to be 0.74 in assay [3] and 0.55 in assay [4].

`Cc1cc(C#Cc2ccc(C(C)(C)C)cc2)ccc1-n1c(/C=C/c2ccc([N+](=O)[O-])o2)nc2ccccc2c1=O`: the Activity in assay [1] was found to be 77%; in assay [2] it was 17%; in assay [5], 6%. Besides, the values for the OD in assay [3] and in assay [4] were 0.7 and 0.4, respectively.

In the case of `COc1ccc2cc(C#Cc3ccc(-n4c(/C=C/c5ccc6ccccc6c5)nc5ccccc5c4=O)c(C)c3)ccc2c1`, the Activity amounted to 69% in assay [1], 22% in assay [2] and 9% in assay [5]. Further, the OD in assay [3] was found to be 0.81; in assay [4], 0.46.

Turning to `COc1ccc2cc(C#Cc3ccc(-n4c(/C=C/c5c(Cl)cccc5Cl)nc5ccccc5c4=O)c(C)c3)ccc2c1`, the Activity in assay [1] came to 68%; in assay [2], 24%; in assay [5], 8%. The figures for the OD in assay [3] and in assay [4] were 0.77 and 0.63, respectively.

As for `Cc1cc(C#Cc2ccccc2)ccc1-n1c(/C=C/c2ccc(Cl)cc2)nc2ccccc2c1=O`, the Activity is on record as 75% in assay [1], 18% in assay [2] and 7% in assay [5]. In addition, the OD is reported as 0.74 in assay [3] and 0.48 in assay [4].

For the compound `Cc1ccccc1/C=C/c1nc2ccccc2c(=O)n1-c1ccc(C#Cc2ccccc2)cc1C`, the Activity in assay [1] stood at 88%; in assay [2] it was 6%; in assay [5], 6%. Further, the OD in assay [3] was found to be 0.78; in assay [4] it was 0.51.

Consider `Cc1cc(C#Cc2ccc(C(C)(C)C)cc2)ccc1-n1c(/C=C/c2ccc([N+](=O)[O-])s2)nc2ccccc2c1=O`, for which the results for the Activity in assay [1], in assay [2] and in assay [5] were 68%, 24% and 8%, respectively. For the same compound, the figures for the OD in assay [3] and in assay [4] were 0.54 and 0.25, respectively.

Consider `COc1ccc2cc(C#Cc3ccc(-n4c(/C=C/c5ccc(F)cc5)nc5ccccc5c4=O)c(C)c3)ccc2c1`, for which the Activity in assay [1] is 74%; in assay [2], 18%; in assay [5], 8%. Moreover, the OD in assay [3] amounted to 0.67; in assay [4], 0.57.

For `Cc1cc(C#Cc2ccc(C(C)(C)C)cc2)ccc1-n1c(/C=C/c2cc(O)cc(O)c2)nc2ccccc2c1=O`, the Activity was found to be 74% in assay [1], 18% in assay [2] and 8% in assay [5]. For the same compound, the OD stood at 0.6 in assay [3] and 0.43 in assay [4].

As to `COc1ccc2cc(C#Cc3ccc(-n4c(/C=C/c5ccc([N+](=O)[O-])o5)nc5ccccc5c4=O)c(C)c3)ccc2c1`, the Activity in assay [1] is recorded as 49%; in assay [2], 39%; in assay [5], 12%. Also, the OD in assay [3] amounted to 0.66; in assay [4], 0.58.

With `Cc1cc(C#Cc2ccccc2)ccc1-n1c(/C=C/c2ccc(F)cc2)nc2ccccc2c1=O`, the Activity in assay [1] turned out to be 73%; in assay [2] it was 20%; in assay [5] it was 7%. Further, the OD is on record as 0.75 in assay [3] and 0.61 in assay [4].

In the case of `Cc1cc(C#Cc2ccccc2)ccc1-n1c(/C=C/c2ccc([N+](=O)[O-])o2)nc2ccccc2c1=O`, the OD in assay [3] stood at 0.88; in assay [4], 0.37.

For `Cc1cc(C#Cc2ccc(C(C)(C)C)cc2)ccc1-n1c(/C=C/c2ccc(O)cc2)nc2ccccc2c1=O`, the figures for the Activity in assay [1], in assay [2] and in assay [5] were 74%, 19% and 7%, respectively. Moreover, the OD in assay [3] is recorded as 0.71; in assay [4], 0.52.

Take `Cc1cc(C#Cc2ccccc2)ccc1-n1c(/C=C/c2ccc3ccccc3c2)nc2ccccc2c1=O`: the Activity in assay [1] was 68%; in assay [2], 24%; in assay [5], 8%. The OD in assay [3] is given as 0.97; in assay [4], 0.43.

In the case of `COc1ccc2cc(C#Cc3ccc(-n4c(/C=C/c5cc(OC)c(OC)c(OC)c5)nc5ccccc5c4=O)c(C)c3)ccc2c1`, the Activity in assay [1] stood at 72%; in assay [2], 21%; in assay [5], 7%. The values for the OD in assay [3] and in assay [4] were 0.57 and 0.58, respectively.

`Cc1cc(C#Cc2ccc(C(C)(C)C)cc2)ccc1-n1c(/C=C/c2ccc(Cl)cc2)nc2ccccc2c1=O`: the values for the OD in assay [3] and in assay [4] were 0.71 and 0.59, respectively.

For the compound `COc1ccc2cc(C#Cc3ccc(-n4c(/C=C/c5ccc(OC)c(OC)c5)nc5ccccc5c4=O)c(C)c3)ccc2c1`, the Activity in assay [1] is 70%; in assay [2] it was 23%; in assay [5], 7%. Besides, the OD is 0.7 in assay [3] and 0.6 in assay [4].

On to `Cc1cc(C#Cc2ccccc2)ccc1-n1c(/C=C/c2ccc(O)c([N+](=O)[O-])c2)nc2ccccc2c1=O`, for which the results for the Activity in assay [1], in assay [2] and in assay [5] were 73%, 20% and 7%, respectively. Besides, the OD in assay [3] is listed as 0.9; in assay [4], 0.51.

For the compound `Cc1cc(C#Cc2ccccc2)ccc1-n1c(/C=C/c2cc(O)cc(O)c2)nc2ccccc2c1=O`, the Activity was 83% in assay [1], 10% in assay [2] and 7% in assay [5]. The OD in assay [3] turned out to be 0.92; in assay [4] it was 0.73.

As for `Cc1cc(C#Cc2ccc(C(C)(C)C)cc2)ccc1-n1c(/C=C/c2ccc3ccccc3c2)nc2ccccc2c1=O`, the Activity in assay [1] is reported as 72%; in assay [2] it was 20%; in assay [5] it was 8%. The results for the OD in assay [3] and in assay [4] were 0.92 and 0.61, respectively.

As to `COc1ccc2cc(C#Cc3ccc(-n4c(/C=C/c5ccnc6ccccc56)nc5ccccc5c4=O)c(C)c3)ccc2c1`, the Activity was determined as 74% in assay [1], 19% in assay [2] and 7% in assay [5]. Also, the OD worked out at 0.76 in assay [3] and 0.5 in assay [4].
